In one assay the target is T1, COX-1 (Ovis aries, UniProt P05979).
T1 sequence (P05979 25-600): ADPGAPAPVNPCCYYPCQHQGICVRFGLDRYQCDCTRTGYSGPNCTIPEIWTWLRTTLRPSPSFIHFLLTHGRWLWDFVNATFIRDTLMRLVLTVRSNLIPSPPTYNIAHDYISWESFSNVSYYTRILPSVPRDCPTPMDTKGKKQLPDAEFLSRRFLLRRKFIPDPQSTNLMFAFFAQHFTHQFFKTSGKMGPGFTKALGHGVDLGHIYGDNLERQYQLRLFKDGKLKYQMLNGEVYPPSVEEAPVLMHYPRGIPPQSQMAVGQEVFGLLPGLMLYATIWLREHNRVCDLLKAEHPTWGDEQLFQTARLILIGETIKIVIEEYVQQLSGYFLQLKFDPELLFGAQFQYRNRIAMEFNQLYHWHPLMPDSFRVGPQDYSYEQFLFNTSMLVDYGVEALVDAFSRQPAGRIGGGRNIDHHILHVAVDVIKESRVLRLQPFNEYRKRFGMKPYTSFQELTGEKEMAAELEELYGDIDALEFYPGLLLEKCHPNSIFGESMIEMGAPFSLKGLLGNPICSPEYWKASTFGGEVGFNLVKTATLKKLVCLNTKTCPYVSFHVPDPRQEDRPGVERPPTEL
As to the kind of experiment: Cell-free COXs activity assay, COX-1. In kind it is biochemical, ovine. As to conditions: percentage of uninhibited control (100%), n = 3, n.i.: no inhibitory activity observed, read-out: COX-1 residual activity (%). The procedure: Cell-free COXs activity assay
Isolated COX-1 (ovine) and COX-2 (human) were used for the evaluation of the activity of test compounds 3, 6, 7, and 9 on cyclooxygenases. COXs were diluted using Tris buffer (100 mM, pH = […]
8) plus 5 mM glutathione, 100 µM EDTA and 5 µM hemoglobin) to a final concentration of 50 U/mL for COX-1 and 20 U/mL for COX-2, and pre-incubated with test compounds 3, 6, 7, and 9 (10 µM) or vehicle (0.1% DMSO) over 5 min at rt. After 1 min at 37 °C, reactions were started after addition of arachidonic acid to a final concentration of 5 µM for COX-1 and 2 µM for COX-2. After 5 min at 37 °C, 1 mL of ice-cold methanol was added for stopping the reactions on ice. Then, PGB 1 as internal standard and 530 µl PBS plus HCl were added, and solid-phase extraction was performed as reported before.4-6, 17-19 COXs product formation (12-HHT) was determined using RP-HPLC. 4-6, 17-19 Indomethacin (10 µM) and celecoxib (5 µM) were used as reference drugs.
Expression, purification and activity assay of human recombinant sEH
Human recombinant sEH was expressed in Sf9 cells and was infected using a baculovirus, provided by Dr. B. Hammock, University of California, Davis, CA. After 72 hours, cells were pelleted and sonicated (3 × 10 sec) at 4 °C in lysis buffer (50 mM NaHPO 4, pH = 8, 300 mM NaCl, 10% glycerol, 1 mM EDTA, 1 mM phenylmethanesulfonyl fluoride, 10 µg/mL of leupeptin, and 60 µg/mL of soybean trypsin inhibitor). Lysates were centrifuged over 60 min at 4 °C (100,000 × g), and supernatants were collected and submitted to a benzylthio-sepharose-affinity chromatography for sEH purification by elution with 4-fluorochalcone oxide in PBS plus 1 mM DTT and 1 mM EDTA.720 […]
DMSO) for 15 min at rt. 50 µM 3-phenyl-cyano(6-methoxy-2-naphthalenyl)methyl ester-2-oxiraneacetic acid (PHOME), a non-fluorescent compound, was added for starting the reaction.
PHOME is enzymatically converted into a fluorescent compound, 6-methoxy-naphtaldehyde, detectable by using a spectrofluorometer setting λ em = 465 nm, λ ex = 330 nm. After 60 min, ZnSO 4

In assay [1] the test system is PGE2 production in IL-1β-stimulated A549 cells. As to the kind of experiment: Inhibition of PGE2 production in IL-1β-stimulated A549 cells. The assay is classed as cell-based, human. As to conditions: A549, IL-1β 10 ng/mL, 5 and 10 μM, 24 h, ELISA. How it is done: Figure 3 (A) A549 cells in conditioned medium (1% FBS and 10 ng/mL IL-1β) were incubated for 24 h with 5 and 10 μM of compound 3, 6, 7, and 9. PGE2 released into the medium was quantified using a specific ELISA. Control cells were stimulated with IL-1β, treated with vehicle (DMSO), and expressed as mean ± SEM (pg/mL), n = 2. (B) A549 cell line was used to perform a MTT assay. A549 were treated with 3, 6, 7, and 9 (test compounds, 10 μM), staurosporine (1 μM, positive control), or vehicle (0.1% DMSO) for 48 h. (C) Human monocytes were used to perform a MTT assay. Cells were treated with 3, 6, 7, and 9 (test compounds, 10 μM), Triton X-100 (1%, positive control), or vehicle (0.5% DMSO) for 24 h. Data are expressed as a percentage of control (100%), means, SEM, n = 3.
Carslbad, CA, USA), in 5% CO2 humid atmosphere. The cells were subcultured every 2 days and were tested for Mycoplasma using PCR analysis.Inhibition of PGE2 production in cells A549 cells were plated at 10.000 cells/well in DMEM with 10% FBS-medium in a 96-well plate; after overnight incubation, the cells were treated with 5 and 10 µM of 3, 6, 7, 9 compounds in DMEM 1%FBS and IL-1β (10 ng/ml) to upregulate PG synthase expression.
After 24 h, the amount of PGE2 released in the supernatant was evaluated by a commercially available enzyme immunoassay kit (Prostaglandin E2 EIA kit Monoclonal, Cayman Chemical), and at the same time was evaluated cell viability by MTT using (3-4,5-[…])-2,5-diphenyl tetrazolium bromide reagent (Sigma-Aldrich). Following the treatment, 20 µL of MTT (5 mg/mL in PBS) was added, and the cells were incubated for additional 3 h at 37°C. […]
The absorbance was measured at 570 nm with a Multiskan™ GO Microplate Spectrophotometer (Thermo Fisher Scientific, USA). […]
MTT (5 mg/mL) was added, and after 1 h (37 °C, 5% CO 2) the medium was replaced with DMSO (100 µL per well). Finally, formazan formation was detected by the measurement of absorbance at […]
Acute cytotoxicity of compounds 3, 6, 7, 9 was analyzed on human monocytes. […]
For orientation: An ELISA detects its analyte on a solid surface through an enzyme-linked reagent.

With `O=C(Nc1nnc(-c2ccc(-c3cccc(O)c3)cc2)s1)c1ccccc1Br` [compound 3], the remaining activity at 10 µM on COX-1 was determined as 104%.

As to `Cc1cc(C(=O)Nc2nnc(-c3ccc(-c4ccccc4N)cc3)s2)cc(Cl)n1` [compound 6], the “PGE2 released into the medium” value in assay [1] is listed as “able to suppress the biosynthesis of PGE2 in a concentration-dependent manner”. The remaining activity at 10 µM on COX-1 came out at 82.3%.

Turning to `Nc1ccccc1-c1ccc(-c2nnc(NC(=O)c3ccccc3Br)s2)cc1` [compound 7], the “PGE2 released into the medium” value in assay [1] is on record as “able to suppress the biosynthesis of PGE2 in a concentration-dependent manner”. Further, at COX-1, the remaining activity at 10 µM was 98.1%.

Regarding `Nc1ccccc1-c1ccc(-c2nnc(NC(=O)c3c(Cl)ccnc3Cl)s2)cc1` [compound 9], the “PGE2 released into the medium” value in assay [1] is “able to suppress the biosynthesis of PGE2 in a concentration-dependent manner”. For the same compound, the remaining activity at 10 µM on COX-1 amounted to 107%.

Values taken from paper PMC9841589, “Identification of 2-Aminoacyl-1,3,4-thiadiazoles as Prostaglandin E2 and Leukotriene Biosynthesis Inhibitors” (ACS Medicinal Chemistry Letters, 2022).
